# Experimental data reported in patent US20090053168A1, “TREATMENTS OF B-CELL PROLIFERATIVE DISORDERS” (priority 2007, published 2009).
# Structures can show the parent of a compound that is named as a salt. Where two headings read alike, the source gives them in different places.
# Tests used:
# RPMI-8226 cells = test: Anti-proliferation assay (ATPLite, 72 h), RPMI-8226; format: cell-based; conditions: for synergy score: RPMI-8226
# MM.1R cells = test: Anti-proliferation assay (ATPLite, 72 h), MM.1R; format: cell-based
# H929 cells = test: Anti-proliferation assay (ATPLite, 72 h), H929; format: cell-based; conditions: for synergy score: H929; for Synergy score with dexamethasone, H929: combination with dexamethasone, Loewe-based Synergy Score, 72 h
# MM.1S cells [1] = test: Anti-proliferation assay (ATPLite, 72 h), MM.1S; conditions: for synergy score: MM.1S; for Synergy score with dexamethasone, MM.1S: combination with dexamethasone, Loewe-based Synergy Score
# [2] = test system: chronic lymphocytic leukemia (CLL) cells; test: Apoptosis assay (Hoechst 33342 flow cytometry, 48 h) on patient CLL cells; format: cell-based, human; conditions: for Induction of CLL cell apoptosis: Patient #1
# Text: Patients with active infections or other serious medical conditions were not included in this study. Patients with white blood cell counts of less than 15,000/μl by automated analysis were excluded from this study. Whole blood was layered on Ficoll-Hystopaque (Sigma), and peripheral blood mononuclear cells (PBMC) isolated after centrification. […] One million cells were stained with anti-CD5-PE and anti-CD19-PE-Cy5 (Becton […].). The percentage of B-CLL cells was defined as the percentage of cells doubly expressing CD5 and CD19, as determined by flow cytometry. […] Compound master plates were diluted 1:50 into complete media to create working compound dilutions. Compound crosses were then created by diluting two working dilution plates 1:10 into each plate of cells. […] Hoechst 33342 (Molecular Probes, Eugene Oreg.) at a final concentration of 0.25 μg/mL was added to each well and the cells incubated at 37° C. for an additional ten minutes before being placed on ice until analysis. Plates were then analyzed on a LSR-II flow cytometer (Becton Dickenson, Franklin Lakes, N.J.) equipped with the High Throughput Sampling (HTS) option in high throughput mode. […] The apoptotic fraction was calculated using FlowJo software (Tree Star Inc., Ashland, Oreg.) after excluding debris by a FSC/SSC gate and subsequently gating for cells that accumulate the Hoechst dye.
# MM.1S cells [3] = conditions: MM.1S
# [4] = in combination with HE-NECA, MM.1R
# [5] = in combination with ADAC, MM.1R
# [6] = combination with dexamethasone, Loewe-based Synergy Score, 72 h
# [7] = Homo sapiens, MM1.S, read-out: percent inhibition of cell proliferation
# [8] = Homo sapiens, MM1.S, 72 h, read-out: percent inhibition of cell proliferation
compound,measurement,setting,value
"CCCCCC[C@@H]([C@@H](C)O)n1cnc2c(N)ncnc21 (racemic) [EHNA, erythro-9-(2-hydroxy-3-nonyl)adenine]","Synergy score with dexamethasone, RPMI-8226",RPMI-8226 cells,1.14
CCCCc1oc2ccccc2c1C(=O)c1cc(I)c(OCCN(CC)CC)c(I)c1 [Amiodarone],synergy score,MM.1R cells; [4],0.67
Cn1cnc([N+](=O)[O-])c1Sc1ncnc2nc[nH]c12 [Azathioprine],synergy score,RPMI-8226 cells; in combination with ADAC,1.63
same,synergy score,H929 cells; in combination with ADAC,1.22
same,synergy score,MM.1R cells; [5],1.26
same,synergy score,MM.1S cells [1]; in combination with ADAC,1.43
"COc1ccc(Cc2nn3c([C@@H](CCCc4ccccc4)[C@@H](C)O)nc(C)c3c(=O)[nH]2)cc1OC [BAY 60-7550, 2-(3,4-dimethoxybenzyl)-7-[(1R)-1-[(1R)-1-hydroxyethyl]-4-phenylbutyl]-5-methylimidazo[5,1-f][1,2,4]triazin-4(3H)-one]","Synergy score with dexamethasone, RPMI-8226",RPMI-8226 cells; [6],1.37
same,"Synergy score with dexamethasone, H929",H929 cells,0.822
same,inhibition at 0.437 µM,MM.1S cells [1]; [7],2.2%
same,inhibition at 1.31 µM,MM.1S cells [1]; [7],1.7%
same,inhibition at 3.93 µM,MM.1S cells [1]; [7],3%
same,inhibition at 35.4 µM,MM.1S cells [1]; [7],44%
same,"Synergy score with dexamethasone, MM.1S",MM.1S cells [1]; 72 h,1.44
CCCCOc1ccc(CC(=O)NO)cc1 [Bufexamac],synergy score,RPMI-8226 cells; in combination with ADAC,1.399
same,synergy score,RPMI-8226 cells; in combination with HE-NECA,0.3833
same,synergy score,H929 cells; in combination with ADAC,1.12
same,synergy score,H929 cells; in combination with HE-NECA,3.17
same,synergy score,MM.1R cells; [5],1.532
same,synergy score,MM.1R cells; [4],3.173
same,synergy score,MM.1S cells [1]; in combination with ADAC,1.479
same,synergy score,MM.1S cells [1]; in combination with HE-NECA,3.476
"OC[C@H]1O[C@@H](n2cnc3c(NC4CCCC4)nc(Cl)nc32)[C@H](O)[C@@H]1O [CCPA, 2-chloro-N^6-cyclopentyladenosine]","Synergy score with dexamethasone, RPMI-8226",RPMI-8226 cells; [6],5.04
same,inhibition at 0.0625 µM,MM.1S cells [1]; [8],2.4%
same,inhibition at 0.187 µM,MM.1S cells [1]; [8],21%
same,inhibition at 0.562 µM,MM.1S cells [1]; [8],15%
same,inhibition at 1.69 µM,MM.1S cells [1]; [8],38%
same,inhibition at 5.06 µM,MM.1S cells [1]; [8],50%
same,activity and synergy in antiproliferation assays,"MM.1S cells [1]; RPMI-8226, H929, MM.1S and MM.1R MM cell lines",active and synergistic
same,"Synergy score with dexamethasone, MM.1S",MM.1S cells [1]; 72 h,5.15
"CCNC(=O)[C@H]1O[C@@H](n2cnc3c(N)nc(NCCc4ccc(CCC(=O)O)cc4)nc32)[C@H](O)[C@@H]1O [CGS-21680, 2-(4-(2-carboxyethyl)phenethylamino)-5′-N-ethylcarboxamidoadenosine]","Synergy score with dexamethasone, RPMI-8226",RPMI-8226 cells; [6],2.54
same,Induction of CLL cell apoptosis,[2]; CGS-21680 0.05 μM alone,12%
same,Induction of CLL cell apoptosis,[2]; CGS-21680 0.15 μM alone,14%
same,Induction of CLL cell apoptosis,[2]; CGS-21680 0.45 μM alone,16%
same,"apoptosis, CLL cells patient 1","[2]; patient 1, 48 hours",14%
same,"apoptosis, CLL cells patient #2","[2]; patient #2, 48 hours",9%
same,"Synergy score with dexamethasone, MM.1S",MM.1S cells [1]; 72 h,4.73
"CN(C(=O)CCCOc1ccc2[nH]c(=O)ccc2c1)C1CCCCC1 [Cilostamide, N-cyclohexyl-4-((1,2-dihydro-2-oxo-6-quinolinyl)oxy)-N-methyl-butanamide]","Synergy score with dexamethasone, RPMI-8226",RPMI-8226 cells; [6],1.42
same,"Synergy score with dexamethasone, H929",H929 cells,0.982
same,inhibition at 0.368 µM,MM.1S cells [1]; [7],0.46%
same,inhibition at 1.1 µM,MM.1S cells [1]; [7],2.4%
same,inhibition at 3.31 µM,MM.1S cells [1]; [7],-2%
same,inhibition at 9.93 µM,MM.1S cells [1]; [7],4.2%
same,inhibition at 29.8 µM,MM.1S cells [1]; [7],33%
same,"Synergy score with dexamethasone, MM.1S",MM.1S cells [1]; 72 h,1.34
CN1C[C@H](C(=O)N[C@]2(C)O[C@@]3(O)[C@@H]4CCCN4C(=O)[C@H](Cc4ccccc4)N3C2=O)C[C@@H]2c3cccc4[nH]cc(c34)C[C@H]21 [Dihydroergotamine],synergy score,MM.1R cells; [4],2.56
C[C@H]1c2cccc(O)c2C(=O)C2=C(O)[C@]3(O)C(=O)C(C(N)=O)=C(O)[C@@H](N(C)C)[C@@H]3[C@@H](O)[C@@H]21 [Doxycycline],synergy score,RPMI-8226 cells; in combination with ADAC,1.17
same,synergy score,H929 cells; in combination with ADAC,2.35
same,synergy score,MM.1R cells; [5],0.78
same,synergy score,MM.1S cells [1]; in combination with ADAC,2.22
COc1cccc2c1C(=O)c1c(O)c3c(c(O)c1C2=O)C[C@@](O)(C(=O)CO)C[C@@H]3O[C@H]1C[C@H](N)[C@@H](O)[C@H](C)O1 [Epirubicin],synergy score,RPMI-8226 cells; in combination with ADAC,1.14
same,synergy score,H929 cells; in combination with ADAC,0.33
same,synergy score,MM.1R cells; [5],1.42
Nc1ccn([C@@H]2O[C@H](CO)[C@@H](O)C2(F)F)c(=O)n1 [Gemcitibine],synergy score,RPMI-8226 cells; in combination with ADAC,0.3
same,synergy score,H929 cells; in combination with ADAC,0.07
same,synergy score,MM.1R cells; [5],1.2
same,synergy score,MM.1S cells [1]; in combination with ADAC,1.42
C#C[C@]1(O)CC[C@H]2[C@@H]3CCC4=CC(=O)CCC4=C3C=C[C@@]21CC [Gestrinone],synergy score,MM.1R cells,1.19
CCc1c2c(nc3ccc(OC(=O)N4CCC(N5CCCCC5)CC4)cc13)-c1cc3c(c(=O)n1C2)COC(=O)[C@]3(O)CC [Irinotecan hydrochloride],synergy score,RPMI-8226 cells; in combination with ADAC,1.414
same,synergy score,RPMI-8226 cells; in combination with HE-NECA,1.227
same,synergy score,H929 cells; in combination with ADAC,1.877
same,synergy score,H929 cells; in combination with HE-NECA,0.6736
same,synergy score,MM.1R cells; [5],3.13
same,synergy score,MM.1R cells; [4],0.6972
same,synergy score,MM.1S cells [1]; in combination with ADAC,2.576
same,synergy score,MM.1S cells [1]; in combination with HE-NECA,0.6406
O=c1cc(N2CCOCC2)oc2c(-c3ccccc3)cccc12 [LY 294002],synergy score,MM.1R cells; [4],0.83
C[C@@H]1C[C@H]2O[C@@H]2/C=C\C=C\C(=O)Cc2c(Cl)c(O)cc(O)c2C(=O)O1 [Monordon],synergy score,MM.1R cells,1.7
"COc1ccc(Cc2nccc3cc(OC)c(OC)cc23)cc1OC [Papaverine, 1-[(3.4-dimethoxyphenyl)-methyl]-6,7-dimethoxyisoquinolone]","Synergy score with dexamethasone, RPMI-8226",RPMI-8226 cells; [6],3.49
same,"Synergy score with dexamethasone, H929",H929 cells,3.05
same,"Synergy score with dexamethasone, MM.1S",MM.1S cells [1]; 72 h,2.99
O=C1C=C2C(=CCOC2O)O1 (centres unmarked) [Patulin],synergy score,MM.1R cells; [4],1.73
"COc1ccc(C2CNC(=O)C2)cc1OC1CCCC1 (centres unmarked) [Rolipram, 4-(3-cyclopentyloxy-4-methoxyphenyl)-2-pyrrolidone]","Synergy score with dexamethasone, RPMI-8226",RPMI-8226 cells; [6],1.43
same,"Synergy score with dexamethasone, H929",H929 cells,0.0927
same,"Synergy score with dexamethasone, MM.1S",MM.1S cells [1]; 72 h,0.203
Nc1nc2c(cnn2CCc2ccccc2)c2nc(-c3ccco3)nn12 [SCH 58261],blocking of chloro-IB-MECA antiproliferative activity,"MM.1S cells [3]; SCH 58261 78 nM, 72 hours, 2-fold dilutions of chloro-IB-MECA",> 50%
same,blocking of chloro-IB-MECA antiproliferative activity,MM.1S cells [3]; antagonist concentration increased 2-fold,> 70%
CC(=O)S[C@@H]1CC2=CC(=O)CC[C@]2(C)[C@H]2CC[C@@]3(C)[C@@H](CC[C@@]34CCC(=O)O4)[C@H]12 [Spironolactone],synergy score,RPMI-8226 cells; in combination with ADAC,0.8213
same,synergy score,RPMI-8226 cells; in combination with HE-NECA,0.6876
same,synergy score,H929 cells; in combination with ADAC,0.6779
same,synergy score,H929 cells; in combination with HE-NECA,1.831
same,synergy score,MM.1R cells; [5],2.029
same,synergy score,MM.1R cells; [4],1.151
same,synergy score,MM.1S cells [1]; in combination with ADAC,1.444
same,synergy score,MM.1S cells [1]; in combination with HE-NECA,1.835
O=c1[nH]c(=O)n([C@H]2C[C@H](O)[C@@H](CO)O2)cc1C(F)(F)F [Trifluridine],synergy score,MM.1R cells; [4],1.94
CC(C)[C@]12O[C@H]1[C@@H]1O[C@]13[C@]1(O[C@H]1C[C@H]1C4=C(CC[C@@]13C)C(=O)OC4)[C@@H]2O [Triptolide],synergy score,MM.1R cells; [4],2.12
